According to US5157032A, “Mixed ligand complexes and uses thereof as binding agents and probes to DNA” (The Trustees of Columbia University In The City of New York, priority 1990, dated 1992):
Several values for one entry are separate records, joined by “and”; a condition that tells them apart may be missing. Equal entries are not always repeated. Entries after “also recorded” stand apart in the source; their conditions may differ. Where two headings read alike, the source gives them in different places.

What was measured:
HIV = type: cell-based
Procedure: The procedure used For testing agents active against (HIV) is designed to detect agents acting at any stage of the virus reproductive cycle. The assay basically involves the killing of T4 lympnocytes by HIV. Small amounts of HIV are added to cells, and at least two complete cycles of virus reproduction are necessary to obtain the required cell killing. […] The system is automated in several ceatures to accomodate large numbers of candidate agents, and is generally designed to detect anti-HIV activity. […]. Also, while every attempt has been made to reduce variability, precise values for EC50, IC50, and Therapeautic Index are not possible. All tests are compared with a positive (AZT-treated) control done at the same time under identical conditions.
(§1) 1. […] lymphocytes (CEM cell line) are exposed to HIV at a virus to cell ratio approximately 0.05, and plated along with noninfected control cells in 96-well microtiter plates.
(§2) 2. Candidate agent is dissolved in dimethyl sulfoxide (unless otherwose instructed), then diluted 1:200 in cell culture medium. Further dilutions (half-log10) are prepared before adding to an equal volume of medium containing either infected or noninfected cells.
(§3) 3. Cultures are incubated at 37° in a 5% carbon dioxide atmosphere for 6 or 7 days.
(§4) 4. The tetrazolium salt, XTT, is added to all wells, and cultures are incubated to allow formazan color development by viable cells.
(§5) 5. Individual wells are analyzed spectrophotometrically to quantitate formazan production, and in addition are viewed microscopically for detection of viable cells and confirmation of protective activity.
(§6) 6. Drug-treated virus-infected cells are compared with drug-treated noninfected cells and with other appropirate controls (untreated infected and untreated noninfected cells, drug-containing wells without cells, etc.) on the same plate.
7. Data are reviewed in comparison with other tests done at the same time, and a determinatin about activity is made.
Several complexes were tested for use as agents active against (HIV). […]
(§7) The Graphic Results Summary Section: FIGS. 23-33 display a plot of Log 10 of the sample's concentration (as μg/mL or molar) against the measured test values expressed as a percentage of uninfected, untreated control values. The solid line connecting the diamond symbols depicts the percentage of surviving HIV-infected cells treated with your sample (at the indicated onccentration) relative to uninfected, untreated cotrols. This line expressed the in-vitro anti-HIV activity of your sample. The dashed line connecting the square symbols depicts the percentage of surviving uninfected cells treated with your sample relative to the same uninfected, untreated controls. This line expresses the in-vitro growth inhibitory properties of your sample. The viral cytophathic effect in this particular experiment is indicated by a dotted reference line. […] Values of this parameter less than 50% are considered acceptable in the current protocol. Reference lines at 0% and 50% are depicted as alternating dots and dashes.

[1] = tested on: CEM cell line (T4 lymphocytes); assay: Growth inhibition of uninfected CEM cells in the anti-HIV screen (XTT); type: cell-based
Procedure: as §1, §2, §3, §4, §5, §6, §7

calf thymus DNA [2] = assay: Absorption titration with calf thymus DNA (half-reciprocal, hypochromism); type: binding; details: in words
Source text: In plots of [DNA]/(εA -εF) versus [DNA], Kb is given by the ratio of the slope to intercept.

calf thymus DNA [3] = assay: Equilibrium dialysis of racemic complexes against calf thymus DNA (Scatchard, dialysate CD); type: binding; set-up: Km × 10) equilibrium dialysis (intrinsic binding constant Kb): scale not given here; details: for Site size: fit to McGhee and von Hippel equation; for binding affinity for DNA: comparative
Procedure: Equilibrium Dialysis: Equlibrium dialysis of the reacemic metal complexes was perforemd against calf-thymus DNA using procedures described previously. (74) The buffer used was 5 mM Tris, 50 mM NaCl at pH 7.5. Samples were agitated on a shaker bath during equilibration which occurred after three to five days, as determined by control samples containing no DNA. After equilibration, volumes of liquid inside and outside the dialysis bags were determined (approximately 1 and 3 mls, respectively) and circular dichroism of the dialysate was meaxured on a Jasco J-40 spectropolarimeter. Final ruthenium concentration inside and outside the bags were measured by visible absorbance. Data anaylsis was performed on a VAX-780 using non-linear least squares analysis.
Equilibrium Dialysis: Equilibrium binding constants for the metal complexes with DNA may be determined classically by equilibrium dialysis. Calf thymus DNA was dialyzed against the series of mixed ligand complexes using a broad range of ruthenium concentrations. […] The results have been plotted according to Scatchard (88), where r is the ratio of bound metal to DNA-phosphate concentration, and cf is the concentration of free metal complex. The data were fit by non-linear least squares analysis to the McGhee and von Hippel equation (8945) governing random non-cooperative binding to a lattice,
where r is the ratio of bound concentration of ruthenium to the concentration of DNA-phosphate, cf is the concentration of ruthenium free in soltuion, Kb the intrinsic binding constant, and the integer /, which measures the degree of anti-cooperativeity, is the size of a binding site in base pairs. The curves shown reflect the best fit after variation of two parameters: the intrinsic binding constant, Kb, and binding stie size, /. For those complexes were cooperatively was observed, the equation (89) incorporating a cooperativity parameter was used.
Equilibrium dialysis experiments additionally offer the opportunity to examine any enantiomeric selectivities associated with binding. After dialysis of the DNA against the racemic mixture, optical activity observed in the dialysate refelects an enrichment in the dialysate in the less favored enantiomer. For most of the complexes, optical activity was found in the dialysate. Values for the extent of enantiomeric selectivity could not be quanitated in the absence of determinations of DE and assignments of absolute configuration. Assuming that the signs of the circular chroism in the ultraviolet ligand bands are the same for the these ligands as that for the parent phenanthroline complex, (90) we have assigned the absolute configuration of these complexes by comparison to spectra for enantiomers of Ru(phen)3^2+ and have compared levels of enantioselectivity qualitatively through measurements of circular dichroic intensity per rutheium bound. Based upon these assumptions, we find enantionmeric selectivities for the polyridyl complexes to reflect an enrichment in the isomer in the dialysate and the preferential binding of the isomer to the right-handed DNA. This observation is consistent with the preferential intercalation of isomers found earlier for Ru(phen)3^2+ in right-handed B-DNA. (63) We may also compare relative enantioselectivities for different ancillary ligands. […] The same comparison may be seen qualitatively between Ru(phen)2 DIP^2+ and Ru(bpy)2 DIP^2+.

pBR322 DNA = assay: Unwinding of supercoiled pBR322 DNA (topoisomerase I assay); details: for EC50: read-out: Unwinding concentration, needed to unwind 11 of 22 supercoils, [DNA] 47 μM for phi complexes, 31.5 μM others, 60 min
[4] = Table 12, dose 1 of 8, printed 9.14 × 10- μg/ml
[5] = Table 12, dose 2 of 8, printed 1.82 × 10+ μg/ml
[6] = Table 12, dose 3 of 8, printed 3.65 × 10+ μg/ml
[7] = Table 12, dose 4 of 8, printed 7.31 × 10+ μg/ml
[8] = Table 12, dose 5 of 8, printed 1.46 × 10+ μg/ml
[9] = Table 12, dose 6 of 8, printed 2.92 × 10+ μg/ml
[10] = Table 12, dose 7 of 8, printed 5.85 × 10+ μg/ml
[11] = Table 12, dose 8 of 8, printed 1.17 × 10+ μg/ml

[Rh+3].c1ccc(-c2ccnc3c2ccc2c(-c4ccccc4)ccnc23)cc1.c1ccc(-c2ccnc3c2ccc2c(-c4ccccc4)ccnc23)cc1.c1ccc(-c2ccnc3c2ccc2c(-c4ccccc4)ccnc23)cc1 [Rh(DIP)3]
Infected Culture Response(%) (HIV; [4]): 12.4%
Infected Culture Response(%) (HIV; [5]): 18.5%
Infected Culture Response(%) (HIV; [6]): 64.7%
Infected Culture Response(%) (HIV; [7]): 45.4%
Infected Culture Response(%) (HIV; [8]): -.3%
Infected Culture Response(%) (HIV; [9]): -.9%
Infected Culture Response(%) (HIV; [10]): -1.8%
Infected Culture Response(%) (HIV; [11]): -1.8%
Infected Culture Response(%) (HIV; Tables 6-11, dose 3 of 8, 1.17 × 10- [sic] μg/ml): 8.0%
activity in inhibiting the activity of HIV (HIV; in words): moderately active
Uninfected Culture Response(%) [1, 4]: 92.9%
Uninfected Culture Response(%) [1, 5]: 91.8%
Uninfected Culture Response(%) [1, 6]: 82.4%
Uninfected Culture Response(%) [1, 7]: 55.2%
Uninfected Culture Response(%) [1, 8]: -.9%
Uninfected Culture Response(%) [1, 9]: -1.6%
Uninfected Culture Response(%) [1, 10]: -.7%
Uninfected Culture Response(%) [1, 11]: -1.5%
Uninfected Culture Response(%) ([1]; Tables 2-5, dose 1 of 8, 1.25 × 10- [sic] μg/ml): 110.1% and 100.3% and 133.6% and 105.1%
Uninfected Culture Response(%) ([1]; Tables 2-5, dose 2 of 8, 1.25 × 10- [sic] μg/ml): 113.1% and 98.9% and 131.0% and 82.1%
Uninfected Culture Response(%) ([1]; Tables 2-5, dose 3 of 8, 1.25 × 10- [sic] μg/ml): 106.0% and 89.3% and 108.6% and 65.1%
Uninfected Culture Response(%) ([1]; Tables 2-5, dose 8 of 8, 1.25 × 10+ [sic] μg/ml): -6% and -1.6% and -6.8% and -2.1%
Uninfected Culture Response(%) ([1]; Tables 6-11, dose 1 of 8): 101.9% and 100.5% and 96.6% and 96.5% and 100.2% and 101.1%
Uninfected Culture Response(%) ([1]; Tables 6-11, dose 2 of 8): 94.1% and 96.9% and 97.4% and 80.8% and 102.4% and 95.3%
Uninfected Culture Response(%) ([1]; Tables 6-11, dose 3 of 8): 96.8% and 102.2% and 101.8% and 86.9% and 115.3% and 110.6%
Uninfected Culture Response(%) ([1]; Tables 6-11, dose 4 of 8): 95.5% and 100.6% and 98.1% and 98.3% and 121.1% and 108.9%
Uninfected Culture Response(%) ([1]; Tables 6-11, dose 5 of 8): 97.9% and 104.2% and 101.3% and 88.4% and 113.8% and 93.7%

O=[N+]([O-])c1cc2cccnc2c2ncccc12.O=[N+]([O-])c1cc2cccnc2c2ncccc12.O=[N+]([O-])c1cc2cccnc2c2ncccc12.[Ru+2] [Ru(5-NO2phen)3^2+, [Ru(5-nitrophenanthroline)3)]Cl2]
binding to DNA (calf thymus DNA [2]; absorption changes too small for Kb): bound very weakly
Site size (calf thymus DNA [3]): 8-12 base pairs
binding affinity for DNA (calf thymus DNA [3]; in words): bind only poorly to DNA; also recorded: much lower than would be expected based upon their solvent accessible surfaces

N=C1C(=N)c2ccccc2-c2ccccc21.[Ru+2].c1ccc(-c2ccccn2)nc1.c1ccc(-c2ccccn2)nc1 [Ru(bpy)2 (phi)^2+]
Unwinding Angle (pBR322 DNA; per molecule of bound complex): 17 degrees
EC50 (pBR322 DNA): 1.1 µM
hypochromism / absorption change on DNA addition (calf thymus DNA [2]): greatest change in absorption
Km × 10) equilibrium dialysis (intrinsic binding constant Kb) (calf thymus DNA [3]; 5 mM Tris, 50 mM NaCl, pH 7.5, standard deviation in parentheses): 160.(17) × 10
Site size (calf thymus DNA [3]): 4 base pairs

N=C1C(=N)c2ccccc2-c2ccccc21.N=C1C(=N)c2ccccc2-c2ccccc21.[Ru+2].c1ccc(-c2ccccn2)nc1 [Ru(phi)2 (bpy)^2+]
unwinding of the helix (pBR322 DNA; in words): lower concentration
EC50 (pBR322 DNA): 0.6 µM
hypochromism / absorption change on DNA addition (calf thymus DNA [2]): greatest change in absorption
Site size (calf thymus DNA [3]): cooperative
aggregation in solution (calf thymus DNA [3]; in words): tend to agfregate in solution
binding curve type (cooperativity) (calf thymus DNA [3]; in words): cooperatiove binding
binding affinity for DNA (calf thymus DNA [3]; in words, listed as Ru(phi) 2 bpy^2+): in the range of those for Ru(phen)2phi^2+
binding affinity for DNA (calf thymus DNA [3]; in words, listed as Ru(phi)2 bpy^2+): decreased affinity for DNA relative to Ru(bpy)2 ph^2+
